Results: ChEMBL document CHEMBL3045474, “Natural products-based insecticidal agents 6. Design, semisynthesis, and insecticidal activity of novel monomethyl phthalate derivatives of podophyllotoxin against Mythimna separata Walker in vivo” (2010)
The source made the active and inactive calls. The calls are words filed in the database; no cut-off is given here.

Assays:
Mythimna separata [1] = assay: In vivo insecticidal activity against pre-third-instar larval stage of Mythimna separata (Oriental armyworm) in corn leaves assessed as induction of molting to abnormal pupae at 1 mg/ml treated for 3 secs before larval infestation on corn leaves by leaf-dipping method; format: functional, organism-based
Mythimna separata [2] = assay: In vivo insecticidal activity against pre-third-instar larval stage of Mythimna separata (Oriental armyworm) in corn leaves assessed as inhibition of adult emergence at 1 mg/ml treated for 3 secs before larval infestation on corn leaves by leaf-dipping method; format: functional, organism-based
Mythimna separata [3] = assay: In vivo insecticidal activity against pre-third-instar larval stage of Mythimna separata (Oriental armyworm) in corn leaves assessed as inhibition of larval pupation at 1 mg/ml treated for 3 secs before larval infestation on corn leaves by leaf-dipping method; format: functional, organism-based
Mythimna separata [4] = assay: In vivo insecticidal activity against pre-third-instar larval stage of Mythimna separata (Oriental armyworm) in corn leaves assessed as induction of loss of body liquid at 1 mg/ml treated for 3 secs before larval infestation on corn leaves measured after 48 hr by leaf-dipping method; format: functional, organism-based
Mythimna separata [5] = assay: In vivo insecticidal activity against pre-third-instar larval stage of Mythimna separata (Oriental armyworm) in corn leaves assessed as induction of larval immobility at 1 mg/ml treated for 3 secs before larval infestation on corn leaves measured after 48 hr by leaf-dipping method; format: functional, organism-based
Mythimna separata [6] = assay: In vivo insecticidal activity against pre-third-instar larval stage of Mythimna separata (Oriental armyworm) in corn leaves assessed as reduction in larval movement at 1 mg/ml treated for 3 secs before larval infestation on corn leaves measured after 24 hr by leaf-dipping method; format: functional, organism-based
Mythimna separata [7] = assay: In vivo insecticidal activity against pre-third-instar larval stage of Mythimna separata (Oriental armyworm) in corn leaves assessed as corrected mortality rate at 1 mg/ml treated for 3 secs before larval infestation on corn leaves measured after 33 days by leaf-dipping method; format: functional; conditions: 792 h
Mythimna separata [8] = assay: In vivo insecticidal activity against pre-third-instar larval stage of Mythimna separata (Oriental armyworm) in corn leaves assessed as corrected mortality rate at 1 mg/ml treated for 3 secs before larval infestation on corn leaves measured after 20 days by leaf-dipping method; format: functional; conditions: 480 h
Mythimna separata [9] = assay: In vivo insecticidal activity against pre-third-instar larval stage of Mythimna separata (Oriental armyworm) in corn leaves assessed as corrected mortality rate at 1 mg/ml treated for 3 secs before larval infestation on corn leaves measured after 10 days by leaf-dipping method; format: functional; conditions: 240 h

| Compound | Activity (Mythimna separata [1]) | Activity (Mythimna separata [2]) | Activity (Mythimna separata [3]) | Activity (Mythimna separata [4]) | Activity (Mythimna separata [5]) | Activity (Mythimna separata [6]) | mortality at 1000 µg/mL (Mythimna separata [7]) [%] | mortality at 1000 µg/mL (Mythimna separata [8]) [%] | mortality at 1000 µg/mL (Mythimna separata [9]) [%] |
| --- | --- | --- | --- | --- | --- | --- | --- | --- | --- |
| COC(=O)c1cccc([N+](=O)[O-])c1C(=O)O[C@H]1c2cc3c(cc2[C@@H](c2cc(OC)c(OC)c(OC)c2)[C@H]2C(=O)OC[C@@H]21)OCO3 | Active | Active | Active | Active | Active | Active | 21.4 | 6.9 | 6.6 |
| COC(=O)c1cccc([N+](=O)[O-])c1C(=O)N[C@@H]1c2cc3c(cc2[C@@H](c2cc(OC)c(OC)c(OC)c2)[C@H]2C(=O)OC[C@@H]21)OCO3 | Active | Active | Active | Active | Active | Active | 35.7 | 20.6 | 10 |
| COC(=O)c1ccccc1C(=O)Oc1c(OC)cc([C@@H]2c3cc4c(cc3[C@@H](OC(=O)c3c(C(=O)OC)cccc3[N+](=O)[O-])[C@H]3COC(=O)[C@H]23)OCO4)cc1OC | Active | Active | Active | Active | Active | Active | 28.5 | 20.6 | 16.6 |
| COC(=O)c1ccccc1C(=O)N[C@@H]1c2cc3c(cc2[C@@H](c2cc(OC)c(OC)c(OC)c2)[C@H]2C(=O)OC[C@@H]21)OCO3 | Active | Active | Active | Active | Active | Active | 42.8 | 10.3 | 6.6 |
| COC(=O)c1ccccc1C(=O)O[C@H]1c2cc3c(cc2[C@@H](c2cc(OC)c(OC)c(OC)c2)[C@H]2C(=O)OC[C@@H]21)OCO3 | Active | Active | Active | Active | Active | Active | 35.7 | 24.1 | 16.6 |
| COC(=O)c1ccccc1C(=O)O[C@@H]1c2cc3c(cc2[C@@H](c2cc(OC)c(OC)c(OC)c2)[C@H]2C(=O)OC[C@@H]21)OCO3 | Active | Active | Active | Active | Active | Active | 38.5 | 20.6 | 10 |
| COC(=O)c1ccccc1C(=O)Oc1c(OC)cc([C@@H]2c3cc4c(cc3[C@@H](OC(=O)c3ccccc3C(=O)OC)[C@H]3COC(=O)[C@H]23)OCO4)cc1OC | Active | Active | Active | Active | Active | Active | 21.4 | 17.2 | 16.6 |
| CC(=O)O[C@@H]1C[C@H](O)[C@@]23CO[C@@H](O)[C@]1(C)[C@@H]2C[C@@H](O)[C@]1(C)[C@@H]3C(=O)[C@H](OC(C)=O)[C@@]2(C)[C@H](c3ccoc3)C[C@H]3O[C@]321 [TOOSENDANIN] | – | – | – | – | – | – | 50 | 31 | 30 |
| COc1cc([C@@H]2c3cc4c(cc3[C@H](O)[C@H]3COC(=O)[C@H]23)OCO4)cc(OC)c1OC [PODOFILOX] | – | – | – | – | – | – | 35.7 | 20.6 | 16.6 |
| COC(=O)c1cccc([N+](=O)[O-])c1C(=O)O[C@@H]1c2cc3c(cc2[C@@H](c2cc(OC)c(OC)c(OC)c2)[C@H]2C(=O)OC[C@@H]21)OCO3 | Active | Active | Active | Active | Active | Active | 42.8 | 17.2 | 10 |
| COC(=O)c1ccccc1C(=O)O[C@H]1c2cc3c(cc2[C@@H](c2cc(OC)c(OC)c(OC)c2)[C@@H]2C(=O)OC[C@@H]21)OCO3 | Active | Active | Active | Active | Active | Active | 17.8 | 10.3 | 10 |
| COC(=O)c1ccccc1C(=O)O[C@H]1c2cc3c(cc2[C@@H](c2cc(OC)c(OC)c(OC)c2)[C@@]2(Cl)C(=O)OC[C@H]12)OCO3 | Active | Active | Active | Active | Active | Active | 53.5 | 31 | 16.6 |
| COC(=O)c1cccc([N+](=O)[O-])c1C(=O)O[C@H]1c2cc3c(cc2[C@@H](c2cc(OC)c(OC)c(OC)c2)[C@@]2(Cl)C(=O)OC[C@H]12)OCO3 | Active | Active | Active | Active | Active | Active | 46.4 | 41.3 | 30 |
| COC(=O)c1cccc([N+](=O)[O-])c1C(=O)O[C@H]1c2cc3c(cc2[C@@H](c2cc(OC)c(OC)c(OC)c2)[C@@H]2C(=O)OC[C@@H]21)OCO3 | Active | Active | Active | Active | Active | Active | 14.2 | 13.7 | 13.3 |
